The conditions of data set [1]: human, in vivo; cited from earlier work.
Another data set concerns testosterone. Put plainly: Plasma level needed to prevent testosterone breakthrough (rat). The data set is classed as in vivo. As to conditions: between doses. The protocol: In the rat, the mean plasma concentration level of degarelix which is necessary to ensure there is no testosterone breakthrough between doses is 6 ng/mL, and this value was therefore selected as the target level for the present work. In other words, if the mean plasma concentration of degarelix is 6 ng/mL or greater after administration of a given formula, this is a good indicator that the formulation would be effective (for the duration of the study).

Data set [2] in a line: Target plasma level calculated for pigs. The data set is classed as in vivo, pig. An excerpt: These very initial studies in this pig model are understood to represent proof of concept that formulations of the invention may be able to provide sustained release for up to three months, especially after IM administration, in a human model.
The conditions of data set [3]: in vivo.

Where a SMILES comes first, the peptide text is derived from it. [ ]: non-standard residue; d: D form. The star is where a group is joined. dPhe(4-NHCONH2) = NC(=O)Nc1ccc(C[C@@H](N)C(=O)O)cc1; Dihydroorotyl(S) = O=C1C[C@@H](C(=O)*)NC(=O)N1; dPhe(4-Cl) = N[C@H](Cc1ccc(Cl)cc1)C(=O)O; Phe(4-NH2) = Nc1ccc(C[C@H](N)C(=O)O)cc1; d2Nal = N[C@H](Cc1ccc2ccccc2c1)C(=O)O; Lys(iPr) = CC(C)NCCCC[C@H](N)C(=O)O; NMeY = CN[C@@H](Cc1ccc(O)cc1)C(=O)O; d3Pal = N[C@H](Cc1cccnc1)C(=O)O

Turning to `CC(=O)N[C@H](Cc1ccc2ccccc2c1)C(=O)N[C@H](Cc1ccc(Cl)cc1)C(=O)N[C@H](Cc1cccnc1)C(=O)N[C@@H](CO)C(=O)N(C)[C@@H](Cc1ccc(O)cc1)C(=O)N[C@H](CC(N)=O)C(=O)N[C@@H](CC(C)C)C(=O)N[C@@H](CCCCNC(C)C)C(=O)N1CCC[C@H]1C(=O)N[C@H](C)C(N)=O` [Abarelix] (Ac-[d2Nal][dPhe(4-Cl)][d3Pal]S[NMeY][dN]L[Lys(iPr)]P[dA]-NH2), the allergic reaction risk entry in data set [1] was “risk of serious allergic reactions, including anaphylaxis with hypotension and syncope”.

As for `CC(=O)N[C@H](Cc1ccc2ccccc2c1)C(=O)N[C@H](Cc1ccc(Cl)cc1)C(=O)N[C@H](Cc1cccnc1)C(=O)N[C@@H](CO)C(=O)N[C@@H](Cc1ccc(NC(=O)[C@@H]2CC(=O)NC(=O)N2)cc1)C(=O)N[C@H](Cc1ccc(NC(N)=O)cc1)C(=O)N[C@@H](CC(C)C)C(=O)N[C@@H](CCCCNC(C)C)C(=O)N1CCC[C@H]1C(=O)N[C@H](C)C(N)=O` [degarelix, D-Alaninamide, N-acetyl-3-(2-naphthalenyl)-D-alanyl-4-chloro-D-phenylalanyl-3-(3-pyridinyl)-D-alanyl-L-seryl-4-[[[(4S)-hexahydro-2,6-dioxo-4-pyrimidinyl]carbonyl]amino]-L-phenylalanyl-4-[(aminocarbonyl)amino]-D-phenylalanyl-L leucyl-N6-(1-methylethyl)-L-lysyl-L-prolyl] (Ac-[d2Nal][dPhe(4-Cl)][d3Pal]S[Phe(4-NH2)](Dihydroorotyl(S))[dPhe(4-NHCONH2)]L[Lys(iPr)]P[dA]-NH2), the “mean plasma concentration necessary to ensure no testosterone breakthrough” value in the data set on testosterone turned out to be 6 ng/mL. For the same compound, the “target level of mean degarelix concentration” value in data set [2] is listed as 8 ng/mL. Also, the efficacy and tolerability result in data set [3] is “effective and well-tolerated without evidence of systemic allergic reactions”.

The values above are taken from US10441626B2, “Microparticles comprising GNRH made by PGSS” (Ferring B.V., priority 2013, dated 2019).
